Results reported in article PMC3062192 (Bioorganic & medicinal chemistry letters, 2011).

Columns and labels:
[1] = molecular target: Cdk5/p25 (Homo sapiens, UniProt Q00535); assay: Cdk5/p25 radiometric kinase inhibition assay; type: biochemical
[2] = tested on: phosphorylated tau at Serine 235 (Ptau235) in primary neurons; assay: inhibition of tau phosphorylation; type: cell-based; settings: rat primary neurons, 4 h at 37 °C, Ptau235 immunoblot

Sequence of Cdk5/p25 (Q00535 whole entry): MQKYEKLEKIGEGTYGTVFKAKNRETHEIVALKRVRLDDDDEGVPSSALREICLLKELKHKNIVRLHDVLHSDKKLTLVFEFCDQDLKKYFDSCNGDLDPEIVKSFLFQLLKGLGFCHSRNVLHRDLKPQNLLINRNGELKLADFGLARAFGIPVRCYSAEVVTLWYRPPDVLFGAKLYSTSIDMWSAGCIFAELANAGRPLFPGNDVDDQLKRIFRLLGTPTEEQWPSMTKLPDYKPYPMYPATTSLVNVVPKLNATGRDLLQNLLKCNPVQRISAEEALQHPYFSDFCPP
Sequence of Cdk5/p25 (Q15078 99-307 partner limits assumed): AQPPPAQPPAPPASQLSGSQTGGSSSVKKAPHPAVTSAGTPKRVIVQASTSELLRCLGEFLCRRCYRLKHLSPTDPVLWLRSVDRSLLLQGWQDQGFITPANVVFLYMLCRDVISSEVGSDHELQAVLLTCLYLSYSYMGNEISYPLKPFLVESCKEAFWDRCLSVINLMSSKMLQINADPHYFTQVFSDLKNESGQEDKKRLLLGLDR

| Cdk5/p25 inhibitory activity (in words) ([1]; radiometric assay) | binding ΔΔG ([1]; calculated from the listed activities for the pair 26 and 28) [kJ/mol] | Structure (SMILES) | inhibition of tau phosphorylation (in words) [2] |
| --- | --- | --- | --- |
| abolished inhibitory activity |  | CNc1nc(Nc2cccnc2)sc1C(=O)c1ccccc1F [Compound 43] |  |
|  | -10.9 | Nc1nc(Nc2cccnc2)sc1C(=O)c1ccccc1F [Compound 26] | dose-dependent inhibition of tau phosphorylation |
